Laboratory results: patent publication US20240216339A1, “METHODS OF TREATING NEUROPSYCHIATRIC DISORDERS” (GILGAMESH PHARMACEUTICALS, INC., priority 2021, published 2024)

Key:
[1] = system: sleep-wake behaviour in Sprague Dawley rats; experiment: EEG/EMG sleep-wake study of daridorexant, psilocybin and their combination; type: in vivo, rat
Protocol: The aim of this study was to investigate the effects of daridorexant, psilocybin, and the combination of the two compounds, on sleep-wake behaviour in Sprague Dawley rats, across the circadian cycle. Daridorexant is a dual orexin receptor antagonist used for treating insomnia. Psilocybin is a 5-HT2A receptor agonist with psychedelic properties and relatively short half-life. The study was conducted at Transpharmation, UK, under Study IDs EEG079a and EEG079c.
8 male Sprague Dawley rats (Charles River, UK) were used in the study. Animals were housed in groups of 2-3 with standard conditions. Average weight at start of dosing was 433-517 g, corresponding to ˜ 14 weeks old.
The animals were anaesthetised with isoflurane (2-5% in oxygen at 1 L/min) throughout the procedure. The scalp, neck, and right flank were cleared of hair using clippers and cleaned using diluted Hibitane (50% (v/v) in water). A non-steroidal anti-inflammatory agent was administered (Carprofen 5 mg/kg, subcutaneously (s.c.)) and the animals placed on a homeothermic blanket (37° C.) with the head fixed in a stereotaxic frame. Incisions were made in the scalp and neck, as well as in the right flank. Blunt dissection of the abdominal muscle was then made to gain access to the peritoneal cavity. A radio transmitter (HD-S02, Data Sciences International) was implanted in the peritoneal cavity and secured to the muscle wall with non-absorbable sutures. The wires of the transmitter were passed using a 16 G needle through the muscle wall and then sub-dermally to the scalp to act as EEG/EMG electrodes. The scalp was cleared of connective tissue and two craniotomies were made with a trepanning drill (fronto-parietal coordinates; Bregma+2 mm anterior, midline+1.0 mm lateral, and Lambda 0 mm, +1.5 mm lateral). The positive EEG electrode was attached to the anterior craniotomy and the negative EEG electrode to the posterior craniotomy. Both electrodes were secured in place using a suitable adhesive agent (cyanoacrylate gel, RS components). A second set of electrodes were sutured into the nuchal muscle to act as EMG electrodes. All incisions were closed using absorbable suture.
All animals were allowed to recover in a warm environment and given 5 mL of saline s.c. Animals were kept singly in the cage until the next day, then pair housed for the duration of post-surgical recovery (minimum 7 days). During the recovery period the rats received 5 days of standard post-operative care with no further experimental procedures until the pre-operative body weight was regained. The animals were maintained on a 12/12 h light-dark cycle (08:00 am lights on) after the surgery.
On study days, at ˜30 min after lights-on, animals were placed in recording boxes similar to their home cages and data acquisition was begun for confirmation of signal quality. After 30 min, each animal was briefly removed from its box to be dosed (see schedule below). Animals were immediately put back into the recording boxes, the experimenter left the room, and recordings continued uninterrupted for ˜23 h. At the end of the recording session, the transmitters were turned off and the animals were returned to their home cages. Animals received treatment conditions in a pseudo randomised cross-over fashion with a minimum period of 7 days between doses.
Daridorexant was administered p.o. at a volume of 5 mL/kg with 0.5% methylcellulose vehicle (Vehicle 1), at doses of 30 mg/kg or 100 mg/kg. Psilocybin was administered s.c. at a volume of 3 mL/kg with saline vehicle (Vehicle 2), at doses of 0.5 mg/kg, 1 mg/kg, or 3 mg/kg.
EEG, EMG, and locomotor activity data were acquired for ˜23 h post dosing using intraperitoneal HD-S02 transmitters (DSI, New Brighton, MN) and Spike2 software (CED, Cambridge UK). EEG/EMG signals were amplified, analogue filtered (0.5-100 Hz), digitized (256 Hz), and then digitally filtered (EEG: 0.5-100 Hz and EMG: 70-100 Hz). […]

[2] = system: major depressive disorder (MDD); conditions: cited from earlier work
C57BL/6 mice = experiment: Head twitch response (HTR) to 4-HO-MET after vehicle or daridorexant pre-treatment; type: in vivo, mouse; conditions: 4-HO-MET 0.32-3.2 mg/kg s.c.; vehicle (0.5% methylcellulose) pretreatment; 20 min period; FIG. 5
Protocol: Administration of 5-HT2A receptor agonists in mice induces a robust head twitch response (HTR). The number of head twitches observed in mice is recognized as an indicator of the degree of psychedelic effects (Halberstadt et al 2020). To determine whether the HTR induced by 5-HT2A receptor agonists is modulated by dual orexin receptor antagonists, a study was performed comparing the HTR induced by a 5-HT2A receptor agonist, 4-hydroxy-N-methyl-N-ethyltryptamine (4-HO-MET), after pre-treatment with either vehicle or the dual orexin receptor antagonist daridorexant.
Male C57BL/6 mice (˜6-8 Week; Hylasco, Hyderabad, India) were pair-housed under standard conditions on a 12-h light cycle with free access to food and water. On the test day, mice were randomly assigned to one of 6 treatment groups (see Table 1 below). Mice were dosed orally with 0.5% methylcellulose or daridorexant at t=−30 min followed by a subcutaneous (s.c.) injection of 4-HO-MET (0.32, 1, or 3.2 mg/kg) at t=0 min. Mice were then immediately placed in a chamber and the number of head twitches in a 20 min period post 4-HO-MET injection (t=0-20 min) were counted manually by a blinded, trained observer.

individuals = conditions: anecdotal; individuals who fell asleep while taking LSD; more than 12 hours after the dose; cited from earlier work
[3] = system: patients with major depressive disorder (MDD); conditions: discontinued Phase II study; cited from earlier work
[4] = first 4 h after dosing, daridorexant at both 30 and 100 mg/kg p.o., FIG. 1B

COc1ccc(-n2nccn2)c(C(=O)N2CCC[C@@]2(C)c2nc3c(C)c(Cl)ccc3[nH]2)c1 [daridorexant]
percentage of time spent in Wake across 22 h ([1]; first 2 h after dosing, daridorexant alone 30, 100 mg/kg, FIG. 3A): wakefulness reduction
percentage of time spent in NREM across 22 h ([1]; first 2 h after dosing, daridorexant alone 30, 100 mg/kg, FIG. 3B): promotion of NREM and REM sleep
percentage of time spent in REM across 22 h ([1]; first 2 h after dosing, daridorexant alone 30, 100 mg/kg, FIG. 3C): promotion of NREM and REM sleep
percentage of time spent in Wake [1, 4]: acutely reduced wakefulness for the first 2 h after dosing
percentage of time spent in sleep (NREM, REM) [1, 4]: promoting sleep, especially NREM sleep
REM sleep onset latency ([1]; psilocybin 1, 3 mg/kg, daridorexant 30, 100 mg/kg, combinations D100+P1, D30+P1, FIG. 2A): dose-dependent decrease
NREM sleep onset latency ([1]; psilocybin 1, 3 mg/kg, daridorexant 30, 100 mg/kg, combinations D100+P1, D30+P1, FIG. 2B): reduction

Cc1cc(C)nc(N2CC3CN(C(=O)c4c(F)cccc4-n4nccn4)CC3C2)n1 (stereo not drawn) [seltorexant, Seltorexant]
(left posterior) EEG power ([2]; compared to placebo): overall increase
delta power during stage 2 sleep ([2]; compared to placebo): relative increase
theta, alpha, and beta power during stage 2 sleep ([2]; compared to placebo): decrease
antidepressant efficacy with continued treatment ([2]; continued treatment up to 28 days): maintained
core depressive symptoms compared to placebo ([2]; ten days of treatment, seen at day 11): significant improvement

CCN(C)CCc1c[nH]c2cccc(O)c12 [4-HO-MET, 4-hydroxy-N-methyl-N-ethyltryptamine]
number of head twitches (HTR) (C57BL/6 mice): produced HTR in a dose-dependent manner

CCN(CC)C(=O)[C@@H]1C=C2c3cccc4[nH]cc(c34)C[C@H]2N(C)C1 [LSD, lysergic acid diethylamide]
next day creativity and vigor (individuals): next day enhanced creativity and vigor

Cc1ccc(-c2ncccn2)c(C(=O)N2C[C@H](COc3ccc(F)cn3)CC[C@H]2C)c1 [filorexant]
separation from placebo in MDD [3]: did not separate from placebo
